Experimental data: a compilation of properties of binary mixtures (doi:10.1016/j.fluid.2015.01.011)

Assay: xn = mol fraction of the nth substance listed
Conditions: 100 kPa

CC[n+]1ccn(C)c1.N#C[S-] + CCOS(=O)(=O)[O-].CC[n+]1ccn(C)c1
electrical conductivity (298.15 K, x1 = 0.199): 0.421 S/m
viscosity (298.15 K, x1 = 0.199): 96.4 mPa·s
electrical conductivity (298.15 K, x1 = 0.32): 0.569 S/m
viscosity (298.15 K, x1 = 0.32): 83.5 mPa·s
electrical conductivity (298.15 K, x1 = 0.429): 0.745 S/m
viscosity (298.15 K, x1 = 0.429): 65.3 mPa·s
electrical conductivity (298.15 K, x1 = 0.899): 1.84 S/m
viscosity (298.15 K, x1 = 0.899): 27.8 mPa·s
electrical conductivity (298.15 K, x1 = 0.9505): 2.1 S/m
viscosity (298.15 K, x1 = 0.9505): 25 mPa·s
electrical conductivity (298.15 K, x1 = 1): 2.32 S/m
viscosity (298.15 K, x1 = 1): 23.1 mPa·s
electrical conductivity (303.15 K, x1 = 0.199): 0.512 S/m
viscosity (303.15 K, x1 = 0.199): 76.1 mPa·s
electrical conductivity (303.15 K, x1 = 0.32): 0.696 S/m
viscosity (303.15 K, x1 = 0.32): 66.5 mPa·s
electrical conductivity (303.15 K, x1 = 0.429): 0.809 S/m
viscosity (303.15 K, x1 = 0.429): 52.7 mPa·s
electrical conductivity (303.15 K, x1 = 0.67): 1.38 S/m
viscosity (303.15 K, x1 = 0.67): 35.8 mPa·s
electrical conductivity (303.15 K, x1 = 0.899): 2.15 S/m
viscosity (303.15 K, x1 = 0.899): 23.5 mPa·s
electrical conductivity (303.15 K, x1 = 0.9505): 2.29 S/m
viscosity (303.15 K, x1 = 0.9505): 21.2 mPa·s
electrical conductivity (303.15 K, x1 = 1): 2.67 S/m
viscosity (303.15 K, x1 = 1): 19.68 mPa·s
electrical conductivity (308.15 K, x1 = 0.32): 0.842 S/m
viscosity (308.15 K, x1 = 0.32): 53.9 mPa·s
electrical conductivity (308.15 K, x1 = 0.429): 1.09 S/m
viscosity (308.15 K, x1 = 0.429): 43.1 mPa·s
electrical conductivity (308.15 K, x1 = 0.67): 1.62 S/m
viscosity (308.15 K, x1 = 0.67): 30 mPa·s
electrical conductivity (308.15 K, x1 = 0.899): 2.5 S/m
viscosity (308.15 K, x1 = 0.899): 20.07 mPa·s
electrical conductivity (308.15 K, x1 = 0.9505): 2.79 S/m
viscosity (308.15 K, x1 = 0.9505): 18.2 mPa·s
electrical conductivity (308.15 K, x1 = 1): 3.06 S/m
viscosity (308.15 K, x1 = 1): 16.97 mPa·s
electrical conductivity (313.15 K, x1 = 0.199): 0.733 S/m
viscosity (313.15 K, x1 = 0.199): 61.2 mPa·s
electrical conductivity (313.15 K, x1 = 0.32): 1 S/m
viscosity (313.15 K, x1 = 0.32): 53.9 mPa·s
electrical conductivity (313.15 K, x1 = 0.67): 1.88 S/m
viscosity (313.15 K, x1 = 0.67): 30 mPa·s
electrical conductivity (313.15 K, x1 = 0.899): 2.85 S/m
viscosity (313.15 K, x1 = 0.899): 20.07 mPa·s
electrical conductivity (313.15 K, x1 = 0.9505): 3.18 S/m
viscosity (313.15 K, x1 = 0.9505): 18.2 mPa·s
electrical conductivity (313.15 K, x1 = 1): 3.47 S/m
viscosity (313.15 K, x1 = 1): 16.97 mPa·s
electrical conductivity (318.15 K, x1 = 0.199): 0.861 S/m
viscosity (318.15 K, x1 = 0.199): 50.1 mPa·s
electrical conductivity (318.15 K, x1 = 0.32): 1.19 S/m
viscosity (318.15 K, x1 = 0.32): 44.4 mPa·s
electrical conductivity (318.15 K, x1 = 0.429): 1.29 S/m
electrical conductivity (318.15 K, x1 = 0.67): 2.18 S/m
electrical conductivity (318.15 K, x1 = 0.899): 3.25 S/m
electrical conductivity (318.15 K, x1 = 1): 3.92 S/m
viscosity (318.15 K, x1 = 1): 14.54 mPa·s
electrical conductivity (323.15 K, x1 = 0.199): 1.02 S/m
viscosity (323.15 K, x1 = 0.199): 34.7 mPa·s
electrical conductivity (323.15 K, x1 = 0.32): 1.38 S/m
viscosity (323.15 K, x1 = 0.32): 31.1 mPa·s
electrical conductivity (323.15 K, x1 = 0.429): 1.52 S/m
viscosity (323.15 K, x1 = 0.429): 25.7 mPa·s
electrical conductivity (323.15 K, x1 = 0.67): 2.49 S/m
viscosity (323.15 K, x1 = 0.67): 18.78 mPa·s
electrical conductivity (323.15 K, x1 = 0.9505): 4.04 S/m
viscosity (323.15 K, x1 = 0.9505): 12.2 mPa·s
electrical conductivity (323.15 K, x1 = 1): 4.38 S/m
viscosity (323.15 K, x1 = 1): 11.49 mPa·s
viscosity (328.15 K, x1 = 0.199): 29.5 mPa·s
viscosity (328.15 K, x1 = 0.32): 26.6 mPa·s
viscosity (328.15 K, x1 = 0.67): 16.38 mPa·s
viscosity (328.15 K, x1 = 0.899): 11.78 mPa·s
viscosity (328.15 K, x1 = 0.9505): 10.86 mPa·s
viscosity (328.15 K, x1 = 1): 10.25 mPa·s
viscosity (333.15 K, x1 = 0.199): 25.3 mPa·s
viscosity (333.15 K, x1 = 0.429): 19.14 mPa·s
viscosity (333.15 K, x1 = 0.67): 14.35 mPa·s
viscosity (333.15 K, x1 = 0.899): 10.37 mPa·s
viscosity (333.15 K, x1 = 0.9505): 9.56 mPa·s
viscosity (333.15 K, x1 = 1): 9.02 mPa·s
viscosity (338.15 K, x1 = 0.199): 21.85 mPa·s
viscosity (338.15 K, x1 = 0.32): 19.89 mPa·s
viscosity (338.15 K, x1 = 0.429): 16.74 mPa·s
viscosity (338.15 K, x1 = 0.67): 12.76 mPa·s
viscosity (338.15 K, x1 = 0.9505): 8.75 mPa·s
viscosity (338.15 K, x1 = 1): 8.3 mPa·s
viscosity (343.15 K, x1 = 0.199): 19.06 mPa·s
viscosity (343.15 K, x1 = 0.67): 11.37 mPa·s
viscosity (343.15 K, x1 = 0.899): 8.53 mPa·s
viscosity (343.15 K, x1 = 0.9505): 7.92 mPa·s
viscosity (343.15 K, x1 = 1): 7.53 mPa·s
viscosity (348.15 K, x1 = 0.199): 16.75 mPa·s
viscosity (348.15 K, x1 = 0.32): 15.38 mPa·s
viscosity (348.15 K, x1 = 0.429): 13.08 mPa·s
viscosity (348.15 K, x1 = 0.67): 10.21 mPa·s
viscosity (348.15 K, x1 = 0.899): 7.74 mPa·s
viscosity (348.15 K, x1 = 1): 6.87 mPa·s
viscosity (353.15 K, x1 = 0.199): 14.87 mPa·s
viscosity (353.15 K, x1 = 0.32): 13.71 mPa·s
viscosity (353.15 K, x1 = 0.429): 11.68 mPa·s
viscosity (353.15 K, x1 = 0.67): 9.16 mPa·s
viscosity (353.15 K, x1 = 0.899): 6.96 mPa·s
viscosity (353.15 K, x1 = 0.9505): 6.48 mPa·s
viscosity (353.15 K, x1 = 1): 6.17 mPa·s

CC[n+]1ccn(C)c1.N#C[S-] + CC[n+]1ccn(C)c1.N#C[N-]C#N
electrical conductivity (298.15 K, x1 = 1): 2.32 S/m
viscosity (298.15 K, x1 = 1): 23.1 mPa·s
electrical conductivity (303.15 K, x1 = 1): 2.67 S/m
viscosity (303.15 K, x1 = 1): 19.68 mPa·s
electrical conductivity (308.15 K, x1 = 1): 3.06 S/m
viscosity (308.15 K, x1 = 1): 16.97 mPa·s
electrical conductivity (313.15 K, x1 = 1): 3.47 S/m
viscosity (313.15 K, x1 = 1): 14.54 mPa·s
electrical conductivity (323.15 K, x1 = 1): 4.38 S/m
viscosity (323.15 K, x1 = 1): 11.49 mPa·s
viscosity (333.15 K, x1 = 1): 9.02 mPa·s
viscosity (348.15 K, x1 = 1): 6.87 mPa·s
viscosity (353.15 K, x1 = 1): 6.17 mPa·s
